Values quoted from earlier work as cited in publication PMC11954145, “Antimicrobial and ADME properties of methoxylated, methylated and nitrated 2-hydroxynaphthalene-1 carboxanilides” (ADMET & DMPK, 2025).
Values after ≈ are worked out from the molar mass of the structure shown.

Experiments:
[1] = system: Mycobacterium kansasii DSM 44162; design: method as in PMID 23924993; details: previously published monosubstituted derivatives; cited from earlier work
MRSA 63718 = system: MRSA 63718; design: method as in PMID 25692135; details: cited from earlier work

Structure (SMILES) | MIC M. kansasii [1] | MIC of vancomycin (MRSA 63718)
O=C(Nc1ccc(C(F)(F)F)cc1)c1c(O)ccc2ccccc12 [2-hydroxy-N-(4-trifluoromethylphenyl)naphthalene-1-carboxamide] | 23 µM (≈ 7.62 µg/mL) | –
O=C(Nc1ccc(Br)cc1)c1c(O)ccc2ccccc12 [N-(4-bromophenyl)-2-hydroxynaphthalene-1-carboxamide] | 93 µM (≈ 31.8 µg/mL) | –
CN[C@H](CC(C)C)C(=O)N[C@H]1C(=O)N[C@@H](CC(N)=O)C(=O)N[C@H]2C(=O)N[C@H]3C(=O)N[C@H](C(=O)N[C@H](C(=O)O)c4cc(O)cc(O)c4-c4cc3ccc4O)[C@H](O)c3ccc(c(Cl)c3)Oc3cc2cc(c3O[C@@H]2O[C@H](CO)[C@@H](O)[C@H](O)[C@H]2O[C@H]2C[C@](C)(N)[C@H](O)[C@H](C)O2)Oc2ccc(cc2Cl)[C@H]1O [vancomycin] | – | 2 µg/mL
